Here are results for three compounds from US12565510B2, “Phospholipid” (NIPPON FINE CHEMICAL CO., LTD., priority 2021, dated 2026).

A short description of data set [1]: Measurement of particle size and polydispersity index of lipid particles (Zetasizer Nano ZS). The data set is classed as physicochemical. As to conditions: siRNA-containing lipid particles made with the named phospholipid A, phospholipid B and cholesterol; for PDI / Particle size (nm): diluted 50-fold with RNase-free water. The method, then:
(§1) siRNA was added to 1 mM citrate buffer (pH 4.0), thereby preparing an acidic aqueous solution of siRNA (25° C., siRNA concentration: 301.2 nM). Separately, lipids were added to ethanol, thereby preparing a phospholipid alcohol solution (25° C., lipid concentration: 2.5 mM). The molar ratios of lipids were (1) DHSM-DEDA:DHSM:cholesterol (Chol)=45:10:45, (2) DHSM-PPZ:DOPC:cholesterol (Chol)=45:10:60, and (3) DOP-DEDA:DPPC:cholesterol (Chol)=45:10:45. A 4.15-fold volume of the acidic aqueous solution of siRNA was added to the phospholipid alcohol solution (siRNA/lipid molar ratio=1/7000), and a microchannel (KeyChem-Basic, YMC Co., Ltd.) was used to obtain lipid particles. Finally, ethanol was removed by dialysis.
The lipid particles were diluted 50-fold with RNase-free water, and then the particle size and polydispersity index (PDI) were measured with a Zetasizer Nano ZS (Malvern). The lipid particles were also diluted 50-fold with a buffer (pH=4.0, 5.0, 6.0, or 7.0), and the ζ-potential was then measured.

A short description of data set [2]: siRNA encapsulation efficiency of lipid particles (RiboGreen reagent). The data set is classed as physicochemical. As to conditions: siRNA-containing lipid particles made with the named phospholipid A; siRNA/lipid molar ratio 1/7000; with or without 2% Triton-X 100. The method, then: as §1
Further, the encapsulation efficiency of siRNA was measured in the following manner. The measurement was performed using an RNA assay reagent (RiboGreen reagent, Thermo Fisher Scientific), specifically as described below. […] The plate was shaken for 5 minutes, and the fluorescence intensity in each well was measured. The encapsulation efficiency of siRNA in the lipid particles was calculated using the following equation: the encapsulation efficiency (%)=(the fluorescence intensity of total siRNA−the fluorescence intensity of free siRNA)/(the fluorescence intensity of total siRNA), with the measured fluorescence intensity.

With “(2S,3R)-3-hydroxy-2-stearamidooctadecyl (2-(piperazino)ethyl) phosphate [DHSM-PPZ]”, in data set [1], the Particle size distribution entry is recorded as “Double peak”, the PDI is 0.16 ± 0.01 and the “Particle size (nm)” value was 111 ± 4 nm. In data set [2], the “siRNA encapsulation efficiency (%)” value was found to be 80 ± 7%.
Consider “Dioleoylphosphate-Diethylenediamine Conjugate [DOP-DEDA, reference compound]”, for which, in data set [1], the Particle size distribution result is on record as “Single peak”, the PDI is recorded as 0.11 ± 0.06 and the “Particle size (nm)” value was 100 ± 3 nm. Also, the “siRNA encapsulation efficiency (%)” value in data set [2] is listed as 98 ± 7%.
Regarding `CCCCCCCCCCCCCCCCCC(=O)N[C@@H](COP(=O)(O)OCCNCCN)[C@H](O)CCCCCCCCCCCCCCC` [DHSM-DEDA, (2S,3R)-3-hydroxy-2-stearamidooctadecyl (2-(2′-aminoethylenamine)ethyl) phosphate], in data set [1], the Particle size distribution result is recorded as “Double peak”, the PDI is given as 0.09 ± 0.03 and the “Particle size (nm)” value stood at 132 ± 37 nm.
